Data on twelve compounds can be found in PubChem BioAssay AID216 (DTP/NCI, 2004).

For this experiment, the system named is BDF1 mice, P288 leukemia ip, survival T/C. In words: NCI In Vivo Anticancer Drug Screen. Data for tumor model P288 Lymphocytic Leukemia (intraperitoneal) in B6D2F1 (BDF1) mice. To be noted: endpoint: survival time, mean or median, higher = longer survival. How it is done: The antitumor activity of compounds was measured in mice bearing transplantable tumors. Survival or tumor size were measured and the results are expressed as the measurement made in the treated group (T) divided by the measurement made in the vehicle treated control group (C). The tumor model used in this assay is P288 Lymphocytic Leukemia (intraperitoneal) in B6D2F1 (BDF1) mice

[1] abbreviates: dose: 18.0 mg/kg/injection, schedule: Q01DX010 (ip), vehicle: saline.
Where [2] appears, read: dose: 8.0 mg/kg/injection, schedule: Q01DX010 (ip), vehicle: saline.
Where [3] appears, read: dose: 25.0 mg/kg/injection, schedule: Q01DX010 (ip), vehicle: saline.
Where [4] appears, read: dose: 50.0 mg/kg/injection, schedule: Q01DX010 (ip), vehicle: saline.
Where [5] appears, read: dose: 100.0 mg/kg/injection, schedule: Q01DX010 (ip), vehicle: saline.
Where [6] appears, read: dose: 200.0 mg/kg/injection, schedule: Q01DX010 (ip), vehicle: saline.
Setting [7] is: dose: 2.0 mg/kg/injection, schedule: Q01DX010 (ip), vehicle: saline.
The mark [8] stands for this setting: dose: 4.0 mg/kg/injection, schedule: Q01DX010 (ip), vehicle: saline.
[9] abbreviates: dose: 16.0 mg/kg/injection, schedule: Q01DX010 (ip), vehicle: saline.

Values joined by “and” are separate entries in the source; they are usually repeats but may differ in a detail not shown here. Equal entries are not always repeated. Toxic doses and inconclusive results are not listed.

On to `C[C@]12C=CC(=O)C=C1CC[C@@H]1[C@@H]2C(=O)C[C@@]2(C)[C@H]1CC[C@]2(O)C(=O)CO`, for which the T/C runs as follows: (dose: 12.5 mg/kg/injection, schedule: Q01DX010 (sc), vehicle: steriod suspending solution) 105 % of control; (dose: 25.0 mg/kg/injection, schedule: Q01DX010 (sc), vehicle: steriod suspending solution) 103 % of control; (dose: 50.0 mg/kg/injection, schedule: Q01DX010 (sc), vehicle: steriod suspending solution) 111 % of control and 87 % of control; (dose: 50.0 mg/kg/injection, schedule: Q01DX Z (sc), vehicle: steriod suspending solution) 102 % of control and 100 % of control; (dose: 100.0 mg/kg/injection, schedule: Q01DX010 (sc), vehicle: steriod suspending solution) 100 % of control; (dose: 100.0 mg/kg/injection, schedule: Q01DX Z (sc), vehicle: steriod suspending solution) 102 % of control and 111 % of control. The T/C reads like this: (dose: 200.0 mg/kg/injection, schedule: Q01DX010 (sc), vehicle: steriod suspending solution) 97 % of control; (dose: 200.0 mg/kg/injection, schedule: Q01DX Z (sc), vehicle: steriod suspending solution) 90 % of control and 100 % of control; (dose: 400.0 mg/kg/injection, schedule: Q01DX Z (sc), vehicle: steriod suspending solution) 94 % of control.

`CCCNc1ncnc2[nH]ncc12`: the T/C reads like this: (dose: 0.31 mg/kg/injection, schedule: Q01DX Z (ip), vehicle: water) 94 % of control; (dose: 0.63 mg/kg/injection, schedule: Q01DX Z (ip), vehicle: water) 90 % of control; (dose: 2.5 mg/kg/injection, schedule: Q01DX Z (ip), vehicle: water) 108 % of control and 114 % of control; (dose: 5.0 mg/kg/injection, schedule: Q01DX Z (ip), vehicle: water) 112 % of control; (dose: 10.0 mg/kg/injection, schedule: Q01DX Z (ip), vehicle: water) 106 % of control and 91 % of control; (dose: 20.0 mg/kg/injection, schedule: Q01DX Z (ip), vehicle: water) 108 % of control. The T/C (dose: 40.0 mg/kg/injection, schedule: Q01DX Z (ip), vehicle: water) is 103 % of control.

Regarding `NC(CCSCc1ccc(N(CCCl)CCCl)cc1)C(=O)O` (stereo unspecified), the T/C was 88 % of control (dose: 4.5 mg/kg/injection, schedule: Q01DX010 (ip), vehicle: saline); 100 % of control (dose: 9.0 mg/kg/injection, schedule: Q01DX010 (ip), vehicle: saline); 88 % of control under setting [1]; 100 % of control (dose: 36.0 mg/kg/injection, schedule: Q01DX010 (ip), vehicle: saline); 161 % of control (dose: 54.0 mg/kg/injection, schedule: Q01DX010 (ip), vehicle: saline); 172 % of control (dose: 80.0 mg/kg/injection, schedule: Q01DX010 (ip), vehicle: saline).

As to `C=C1C[C@H]2[C@@H]3C=C(C)C4=CC(=O)CC[C@]4(C)[C@H]3CC[C@]2(C)[C@@]1(OC(C)=O)C(C)=O`, the T/C reads like this: (dose: 62.5 mg/kg/injection, schedule: Q01DX010 (sc), vehicle: steriod suspending solution) 88 % of control; (dose: 125.0 mg/kg/injection, schedule: Q01DX010 (sc), vehicle: steriod suspending solution) 94 % of control.

Consider `O=C(Nc1ccc(C2=NCCN2)cc1)c1ccc(C(=O)Nc2ccc(C3=NCCN3)cc2)c([N+](=O)[O-])c1`, for which the T/C is 155 % of control and 175 % of control (dose: 6.0 mg/kg/injection, schedule: Q01DX010 (ip), vehicle: saline); 188 % of control and 262 % of control under setting [2]; 333 % of control and 375 % of control (dose: 12.0 mg/kg/injection, schedule: Q01DX010 (ip), vehicle: saline); 187 % of control under setting [1].

Regarding `CC(=O)Nc1ccc2nc3ccc(NC(C)=O)cc3[n+](-c3ccccc3)c2c1`, the T/C (dose: 3.1 mg/kg/injection, schedule: Q01DX Z (ip), vehicle: carboxymethylcellulose (CMC)) was 115 % of control; the T/C (dose: 6.25 mg/kg/injection, schedule: Q01DX Z (ip), vehicle: carboxymethylcellulose (CMC)) was 113 % of control; the T/C under setting [3] is 112 % of control; the T/C under setting [4] was 112 % of control and 95 % of control; the T/C under setting [5] was 95 % of control; the T/C under setting [6] is 90 % of control. The T/C (dose: 400.0 mg/kg/injection, schedule: Q01DX010 (ip), vehicle: saline) was 100 % of control and the T/C (dose: 400.0 mg/kg/injection, schedule: Q01DX Z (ip), vehicle: carboxymethylcellulose (CMC)) is 162 % of control.

In the case of `CN(C)/N=N/c1nc[nH]c1C(N)=O`, the T/C is 100 % of control under setting [3]; 88 % of control under setting [4]; 94 % of control and 100 % of control under setting [5]; 100 % of control under setting [6].

In the case of `Nc1nc2n[nH]nc2c(=O)[nH]1`, the T/C by setting is: (dose: 12.5 mg/kg/injection, schedule: Q01DX Z (ip), vehicle: other) 111 % of control; (dose: 25.0 mg/kg/injection, schedule: Q01DX010 (ip), vehicle: alkali diluted with saline) 100 % of control; (dose: 100.0 mg/kg/injection, schedule: Q01DX Z (ip), vehicle: other) 152 % of control and 183 % of control; (dose: 200.0 mg/kg/injection, schedule: Q01DX Z (ip), vehicle: other) 195 % of control.

On to `CC(CCC(C)OS(C)(=O)=O)OS(C)(=O)=O` (stereo unspecified), for which the T/C was 100 % of control (dose: 0.63 mg/kg/injection, schedule: Q01DX Z (ip), vehicle: carboxymethylcellulose (CMC)); 88 % of control (dose: 1.25 mg/kg/injection, schedule: Q01DX Z (ip), vehicle: carboxymethylcellulose (CMC)); 90 % of control under setting [7]; 105 % of control (dose: 2.5 mg/kg/injection, schedule: Q01DX Z (ip), vehicle: carboxymethylcellulose (CMC)); 90 % of control under setting [8]; 114 % of control (dose: 5.0 mg/kg/injection, schedule: Q01DX Z (ip), vehicle: carboxymethylcellulose (CMC)). Besides, the T/C was 100 % of control under setting [2]; 107 % of control (dose: 10.0 mg/kg/injection, schedule: Q01DX Z (ip), vehicle: carboxymethylcellulose (CMC)); 104 % of control and 105 % of control and 90 % of control under setting [9]; 90 % of control (dose: 20.0 mg/kg/injection, schedule: Q01DX Z (ip), vehicle: carboxymethylcellulose (CMC)).

Take `C=CC(CN1CC1)OC(C)=O` (stereo unspecified): the T/C is, setting by setting: (dose: 0.47 mg/kg/injection, schedule: Q01DX Z (ip), vehicle: carboxymethylcellulose (CMC)) 109 % of control; (dose: 0.95 mg/kg/injection, schedule: Q01DX Z (ip), vehicle: carboxymethylcellulose (CMC)) 101 % of control; (dose: 1.9 mg/kg/injection, schedule: Q01DX Z (ip), vehicle: carboxymethylcellulose (CMC)) 115 % of control and 90 % of control; under setting [7], 94 % of control; (dose: 3.8 mg/kg/injection, schedule: Q01DX Z (ip), vehicle: carboxymethylcellulose (CMC)) 108 % of control; under setting [8], 94 % of control. Besides, the T/C by setting is: under setting [2], 115 % of control; under setting [9], 115 % of control.

`CS(=O)(=O)OCCCCOS(C)(=O)=O`: the T/C was 110 % of control (dose: 6.25 mg/kg/injection, schedule: Q01DX010 (ip), vehicle: saline); 105 % of control and 115 % of control (dose: 12.5 mg/kg/injection, schedule: Q01DX010 (ip), vehicle: saline); 105 % of control and 110 % of control under setting [3]; 121 % of control and 100 % of control under setting [4].

Take `CCn1cnc2c(=S)nc[nH]c21`: the T/C is, setting by setting: (dose: 15.6 mg/kg/injection, schedule: Q01DX Z (ip), vehicle: carboxymethylcellulose (CMC)) 92 % of control; (dose: 31.25 mg/kg/injection, schedule: Q01DX Z (ip), vehicle: carboxymethylcellulose (CMC)) 92 % of control; (dose: 62.5 mg/kg/injection, schedule: Q01DX010 (ip), vehicle: saline) 90 % of control; (dose: 62.5 mg/kg/injection, schedule: Q01DX Z (ip), vehicle: carboxymethylcellulose (CMC)) 93 % of control; (dose: 125.0 mg/kg/injection, schedule: Q01DX010 (ip), vehicle: saline) 90 % of control.
